Experimental data as given in ChEMBL document CHEMBL5724914, “Linking interpersonal differences in gut microbiota composition and drug biotransformation activity” (2024).
Blank lines part the entries; values can stand above or below the molecule they belong to.

Experiments:
[1] = (§1) The drug is tested on WLS-039 corresponding to human gut metagenome with ENA study accession number: PRJEB37062 and ENA sample accession number: ERS12561746 for biotransformation under anaerobic condition. The drug concentrations were measured over 9 timepoints collected between 0 and 24 hours of incubation by liquid-chromatography-coupled mass spectrometry (LC–MS); details: 2 µM
[2] = as §1, with “Z-010” for “WLS-039”, “to” for “to human gut”, “ERS12561810” for “ERS12561746”; details: 2 µM
[3] = as §1, with “WLS-052” for “WLS-039”, “ERS12561747” for “ERS12561746”; details: 2 µM
[4] = as §1, with “Z-007” for “WLS-039”, “rat” for “human”, “ERS12561807” for “ERS12561746”; details: 2 µM
[5] = human gut metagenome, 24 h, 2 µM
[6] = as §1, with “WLS-240” for “WLS-039”, “ERS12561773” for “ERS12561746”; details: 2 µM
[7] = as §1, with “WLS-027” for “WLS-039”, “ERS12561744” for “ERS12561746”; details: 2 µM
[8] = as §1, with “Z-030” for “WLS-039”, “mouse” for “human”, “ERS12561829” for “ERS12561746”; details: 2 µM
[9] = human gut metagenome, 24 h, 2 µM; remark: listed apart in the source
[10] = as §1, with “WLS-220” for “WLS-039”, “ERS12561769” for “ERS12561746”; details: 2 µM
[11] = human gut metagenome, 24 h, 2 µM; remark: listed apart in the source
[12] = human gut metagenome, 24 h, 2 µM; remark: listed apart in the source
[13] = as §1, with “Z-014” for “WLS-039”, “rat” for “human”, “ERS12561814” for “ERS12561746”; details: 2 µM
[14] = human gut metagenome, 24 h, 2 µM; remark: listed apart in the source
[15] = human gut metagenome, 24 h, 2 µM; remark: listed apart in the source
[16] = as §1, with “WLS-082” for “WLS-039”, “ERS12561751” for “ERS12561746”; details: 2 µM
[17] = as §1, with “Z-020” for “WLS-039”, “rabbit” for “human”, “ERS12561819” for “ERS12561746”; details: 2 µM
[18] = human gut metagenome, 24 h, 2 µM; remark: listed apart in the source
[19] = as §1, with “Z-006” for “WLS-039”, “mouse” for “human”, “ERS12561806” for “ERS12561746”; details: 2 µM
[20] = human gut metagenome, 24 h, 2 µM; remark: listed apart in the source
Note: call rule not given here.

Compound: CN1CCC(OC(c2ccccc2)c2ccccc2)CC1
Bacterial Biotransformation [1]: Compound metabolized
Bacterial Biotransformation [2]: Compound NOT metabolized
Bacterial Biotransformation [3]: Compound NOT metabolized
Bacterial Biotransformation [4]: Compound NOT metabolized
Bacterial Biotransformation [5]: Compound NOT metabolized
Bacterial Biotransformation [6]: Compound metabolized
Bacterial Biotransformation [7]: Compound NOT metabolized
Bacterial Biotransformation [8]: Compound NOT metabolized
Bacterial Biotransformation [9]: Compound NOT metabolized
Bacterial Biotransformation [10]: Compound metabolized
Bacterial Biotransformation [11]: Compound NOT metabolized
Bacterial Biotransformation [12]: Compound NOT metabolized
Bacterial Biotransformation [13]: Compound NOT metabolized
Bacterial Biotransformation [14]: Compound NOT metabolized
Bacterial Biotransformation [15]: Compound NOT metabolized
Bacterial Biotransformation [16]: Compound NOT metabolized
Bacterial Biotransformation [17]: Compound NOT metabolized
Bacterial Biotransformation [18]: Compound metabolized
Bacterial Biotransformation [19]: Compound NOT metabolized
Bacterial Biotransformation [20]: Compound NOT metabolized

Compound: CCOC(=O)[C@H](CCc1ccccc1)N[C@@H](C)C(=O)N1Cc2ccccc2C[C@H]1C(=O)O
Bacterial Biotransformation [1]: Compound metabolized
Bacterial Biotransformation [2]: Compound NOT metabolized
Bacterial Biotransformation [3]: Compound metabolized
Bacterial Biotransformation [4]: Compound NOT metabolized
Bacterial Biotransformation [5]: Compound metabolized
Bacterial Biotransformation [6]: Compound metabolized
Bacterial Biotransformation [7]: Compound metabolized
Bacterial Biotransformation [8]: Compound NOT metabolized
Bacterial Biotransformation [9]: Compound metabolized
Bacterial Biotransformation [10]: Compound metabolized
Bacterial Biotransformation [11]: Compound metabolized
Bacterial Biotransformation [12]: Compound NOT metabolized
Bacterial Biotransformation [13]: Compound NOT metabolized
Bacterial Biotransformation [14]: Compound NOT metabolized
Bacterial Biotransformation [15]: Compound metabolized
Bacterial Biotransformation [16]: Compound metabolized
Bacterial Biotransformation [17]: Compound NOT metabolized
Bacterial Biotransformation [18]: Compound metabolized
Bacterial Biotransformation [19]: Compound NOT metabolized
Bacterial Biotransformation [20]: Compound NOT metabolized

Compound: C#C[C@]1(OC(C)=O)CC[C@H]2[C@@H]3CCC4=C[C@@H](OC(C)=O)CC[C@@H]4[C@H]3CC[C@@]21C [ETHYNODIOL DIACETATE]
Bacterial Biotransformation [1]: Compound metabolized
Bacterial Biotransformation [2]: Compound metabolized
Bacterial Biotransformation [3]: Compound metabolized
Bacterial Biotransformation [4]: Compound metabolized
Bacterial Biotransformation [5]: Compound metabolized
Bacterial Biotransformation [6]: Compound metabolized
Bacterial Biotransformation [8]: Compound metabolized
Bacterial Biotransformation [9]: Compound NOT metabolized
Bacterial Biotransformation [10]: Compound metabolized
Bacterial Biotransformation [11]: Compound metabolized
Bacterial Biotransformation [12]: Compound metabolized
Bacterial Biotransformation [13]: Compound metabolized
Bacterial Biotransformation [14]: Compound metabolized
Bacterial Biotransformation [15]: Compound metabolized
Bacterial Biotransformation [16]: Compound metabolized
Bacterial Biotransformation [17]: Compound metabolized
Bacterial Biotransformation [18]: Compound metabolized
Bacterial Biotransformation [19]: Compound metabolized
Bacterial Biotransformation [20]: Compound metabolized

Compound: O=C1N=C([O-])NC1(c1ccccc1)c1ccccc1.[Na+] [PHENYTOIN SODIUM]
Bacterial Biotransformation [1]: Compound NOT metabolized
Bacterial Biotransformation [2]: Compound NOT metabolized
Bacterial Biotransformation [3]: Compound metabolized
Bacterial Biotransformation [4]: Compound NOT metabolized
Bacterial Biotransformation [5]: Compound metabolized
Bacterial Biotransformation [6]: Compound metabolized
Bacterial Biotransformation [7]: Compound metabolized
Bacterial Biotransformation [9]: Compound NOT metabolized
Bacterial Biotransformation [10]: Compound metabolized
Bacterial Biotransformation [11]: Compound NOT metabolized
Bacterial Biotransformation [12]: Compound metabolized
Bacterial Biotransformation [13]: Compound NOT metabolized
Bacterial Biotransformation [14]: Compound NOT metabolized
Bacterial Biotransformation [15]: Compound metabolized
Bacterial Biotransformation [16]: Compound metabolized
Bacterial Biotransformation [17]: Compound NOT metabolized
Bacterial Biotransformation [18]: Compound metabolized
Bacterial Biotransformation [19]: Compound NOT metabolized
Bacterial Biotransformation [20]: Compound NOT metabolized

Continued, values first:

Bacterial Biotransformation [1]: Compound metabolized
Bacterial Biotransformation [3]: Compound metabolized
Bacterial Biotransformation [5]: Compound NOT metabolized
Bacterial Biotransformation [6]: Compound metabolized
Bacterial Biotransformation [7]: Compound metabolized
Bacterial Biotransformation [9]: Compound metabolized
Bacterial Biotransformation [10]: Compound metabolized
Bacterial Biotransformation [11]: Compound metabolized
Bacterial Biotransformation [12]: Compound NOT metabolized
Bacterial Biotransformation [14]: Compound NOT metabolized
Bacterial Biotransformation [15]: Compound metabolized
Bacterial Biotransformation [16]: Compound metabolized
Bacterial Biotransformation [18]: Compound metabolized
Bacterial Biotransformation [20]: Compound NOT metabolized
Compound: O=C([O-])C[C@H](O)C[C@H](O)/C=C/c1c(C2CC2)nc2ccccc2c1-c1ccc(F)cc1.O=C([O-])C[C@H](O)C[C@H](O)/C=C/c1c(C2CC2)nc2ccccc2c1-c1ccc(F)cc1.[Ca+2] [PITAVASTATIN CALCIUM]

Bacterial Biotransformation [1]: Compound metabolized
Bacterial Biotransformation [2]: Compound metabolized
Bacterial Biotransformation [3]: Compound metabolized
Bacterial Biotransformation [4]: Compound NOT metabolized
Bacterial Biotransformation [5]: Compound metabolized
Bacterial Biotransformation [6]: Compound metabolized
Bacterial Biotransformation [7]: Compound metabolized
Bacterial Biotransformation [8]: Compound NOT metabolized
Bacterial Biotransformation [9]: Compound metabolized
Bacterial Biotransformation [10]: Compound metabolized
Bacterial Biotransformation [11]: Compound metabolized
Bacterial Biotransformation [12]: Compound metabolized
Bacterial Biotransformation [13]: Compound NOT metabolized
Bacterial Biotransformation [14]: Compound metabolized
Bacterial Biotransformation [15]: Compound metabolized
Bacterial Biotransformation [16]: Compound metabolized
Bacterial Biotransformation [17]: Compound metabolized
Bacterial Biotransformation [19]: Compound metabolized
Bacterial Biotransformation [20]: Compound NOT metabolized
Compound: C[C@]12C=CC(=O)C=C1CC[C@@H]1[C@@H]2C(=O)C[C@@]2(C)[C@H]1CC[C@]2(O)C(=O)CO [PREDNISONE]

Bacterial Biotransformation [1]: Compound NOT metabolized
Bacterial Biotransformation [5]: Compound NOT metabolized
Bacterial Biotransformation [6]: Compound metabolized
Bacterial Biotransformation [9]: Compound NOT metabolized
Bacterial Biotransformation [11]: Compound NOT metabolized
Bacterial Biotransformation [12]: Compound metabolized
Bacterial Biotransformation [13]: Compound NOT metabolized
Bacterial Biotransformation [14]: Compound NOT metabolized
Bacterial Biotransformation [15]: Compound metabolized
Bacterial Biotransformation [18]: Compound metabolized
Bacterial Biotransformation [20]: Compound metabolized
Compound: CNNCc1ccc(C(=O)NC(C)C)cc1 [PROCARBAZINE]

Bacterial Biotransformation [2]: Compound NOT metabolized
Bacterial Biotransformation [4]: Compound NOT metabolized
Bacterial Biotransformation [5]: Compound metabolized
Bacterial Biotransformation [6]: Compound NOT metabolized
Bacterial Biotransformation [7]: Compound NOT metabolized
Bacterial Biotransformation [8]: Compound NOT metabolized
Bacterial Biotransformation [9]: Compound NOT metabolized
Bacterial Biotransformation [10]: Compound NOT metabolized
Bacterial Biotransformation [11]: Compound NOT metabolized
Bacterial Biotransformation [12]: Compound NOT metabolized
Bacterial Biotransformation [13]: Compound NOT metabolized
Bacterial Biotransformation [14]: Compound NOT metabolized
Bacterial Biotransformation [15]: Compound NOT metabolized
Bacterial Biotransformation [16]: Compound NOT metabolized
Bacterial Biotransformation [17]: Compound NOT metabolized
Bacterial Biotransformation [18]: Compound NOT metabolized
Bacterial Biotransformation [19]: Compound NOT metabolized
Bacterial Biotransformation [20]: Compound NOT metabolized
Compound: CN(C/C=C/C#CC(C)(C)C)Cc1cccc2ccccc12 [TERBINAFINE]

Bacterial Biotransformation [1]: Compound metabolized
Bacterial Biotransformation [2]: Compound metabolized
Bacterial Biotransformation [3]: Compound metabolized
Bacterial Biotransformation [4]: Compound NOT metabolized
Bacterial Biotransformation [5]: Compound metabolized
Bacterial Biotransformation [6]: Compound metabolized
Bacterial Biotransformation [7]: Compound metabolized
Bacterial Biotransformation [8]: Compound metabolized
Bacterial Biotransformation [9]: Compound metabolized
Bacterial Biotransformation [10]: Compound metabolized
Bacterial Biotransformation [11]: Compound metabolized
Bacterial Biotransformation [12]: Compound metabolized
Bacterial Biotransformation [13]: Compound NOT metabolized
Bacterial Biotransformation [14]: Compound metabolized
Bacterial Biotransformation [15]: Compound metabolized
Bacterial Biotransformation [16]: Compound metabolized
Bacterial Biotransformation [18]: Compound metabolized
Bacterial Biotransformation [19]: Compound metabolized
Compound: N#Cc1ccc2[nH]cc(CCCCN3CCN(c4ccc5oc(C(N)=O)cc5c4)CC3)c2c1 [VILAZODONE]
